Source: US9133187B2, “Serine/threonine kinase inhibitors” (ARRAY BIOPHARMA INC., priority 2011, dated 2015)
pIC50: −log10 of the molar value.

Legend:
[1] = biological target: human ERK-2 (Mitogen Activated Kinase 1) (Homo sapiens (Human), UniProt P28482); assay: ERK-2 Enzymatic Assay; assay type: biochemical; details: 5 nM ERK-2, 25 μM ATP, Omnia peptide S/T17; read-out: ERK Inhibition IC50
Procedure: Compounds were tested in an enzymatic assay using human ERK-2 (Mitogen Activated Kinase 1), recombinantly expressed as an n-terminal 6-His fusion protein in E. coli and corresponding to aa 8-360. The substrate used was the fluorescent Omnia peptide S/T17 (Invitrogen of Carlsbad, Calif.; Cat. KNZ1171C). Test compounds were diluted in DMSO in 3-fold serial dilutions at 100× final concentrations. […] The assay was run at ambient temperature in a white 384-well polypropylene plate (Nunc, Inc of Naperville, Ill.; Cat. 267462) collecting data every 50 seconds for approximately 30 minutes on an Envision plate reader (PerkinElmer, Inc. of Waltham, Mass.); Excitation 340 nm/Emission 495 nm. The data collected from each well was fit to a straight line and the resulting rates were used to calculate percent of control. Percent of control was plotted against compound concentration and IC50 values were determined using a four-parameter fit.

[2] = tested on: PMA-stimulated P90RSK(Ser380) phosphorylation in HepG2 cells; assay: Cellular P90RSK(Ser380) Phosphorylation Assay; assay type: cell-based; details: Homo sapiens, 1.5 h compound incubation, PMA stimulation, pP90RSK(Ser380) normalized to GAPDH, read-out: Cell Assay IC50
Procedure: Inhibition of PMA-stimulated P90RSK(Ser380) phosphorylation was determined by the following in vitro cellular mechanistic assay, which comprises incubating cells with a compound for 1.5 hours and quantifying fluorescent pP90RSK(Ser380) signal on fixed cells and normalizing to GAPDH signal.
Materials and Methods: HepG2 cells were obtained from ATCC and grown in DMEM supplemented with 10% fetal bovine serum. Cells were plated in 96-well plates at 35,000 cells/well and allowed to attach overnight at 37° C./5% CO2. Diluted compounds were then added at a final concentration of 0.5% DMSO. After 1.5 hour compound incubation, cells were stimulated with the addition of PMA (phorbol 12-myristate 13-acetate) at a final concentration of 100 ng/mL; the PMA stimulation was a 30-minute incubation at 37° C./5% CO2. After the 30-minute PMA stimulation, cells were washed with PBS and fixed in 3.7% formaldehyde in PBS at room temperature for 15-20 minutes. This was followed by another wash in PBS and then permeabilization in 100% MeOH at room temperature for 10-15 minutes. Following the permeabilization incubation, cells were washed in PBS/0.05% Tween-20, followed by a block in Odyssey blocking buffer (LI-COR Biosciences) for at least 1 hour. Antibodies to phosphorylated P90RSK(Ser380) (Cell Signaling #9335, rabbit monoclonal) and GAPDH (Fitzgerald 10R-G109a, mouse monoclonal) were added to the cells and incubated overnight at 4° C. pP90RSK(Ser380) antibody was used at a 1:250 dilution; GAPDH was used at a 1:10,000 dilution. After washing with PBS/0.05% Tween-20, the cells were incubated with fluorescently-labeled secondary antibodies (Anti-rabbit-Alexa Flour680, Invitrogen Cat#A21109; Anti-mouse-IRDye800CW, Rockland Inc. Cat#610-131-121) for 1 hour. Both secondary antibodies were used at a 1:1000 dilution. Cells were then washed and analyzed for fluorescence at both wavelengths using the Odyssey Infrared Imaging System (LI-COR Biosciences). Phosphorylated P90RSK(Ser380) signal was normalized to GAPDH signal. Representative date is in TABLE III (infra).

human ERK-2 (Mitogen Activated Kinase 1), sequence (P28482 8-360): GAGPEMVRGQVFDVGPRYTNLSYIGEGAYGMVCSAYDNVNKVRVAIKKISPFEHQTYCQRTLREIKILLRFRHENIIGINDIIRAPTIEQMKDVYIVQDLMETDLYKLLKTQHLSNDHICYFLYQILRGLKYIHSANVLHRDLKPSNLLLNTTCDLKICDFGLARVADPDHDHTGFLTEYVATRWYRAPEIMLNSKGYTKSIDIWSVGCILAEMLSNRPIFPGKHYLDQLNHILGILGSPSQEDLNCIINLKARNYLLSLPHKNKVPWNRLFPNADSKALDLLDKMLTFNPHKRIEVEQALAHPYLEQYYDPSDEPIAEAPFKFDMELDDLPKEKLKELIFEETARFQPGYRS

Row | Compound | pIC50 [1] | pIC50 [2]
1 | CC(C)Nc1ncc2c(n1)CN(C(=O)CCc1ccc(Cl)cc1Cl)CC2 [II-24, 3-(2,4-Dichloro-phenyl)-1-(2-isopropylamino-5,8-dihydro-6H-pyrido[3,4-d]pyrimidin-7-yl)-propan-1-one] | 6.61 | 4.30
2 | CNC(=O)C(NC(=O)N1CCc2cnc(NC(C)C)nc2C1)c1ccc(F)c(Cl)c1 (stereo not shown) [II-26, 2-Isopropylamino-5,8-dihydro-6H-pyrido[3,4-d]pyrimidine-7-carboxylic acid [(3-chloro-4-fluoro-phenyl)-methylcarbamoyl-methyl]-amide] | 7.06 | 4.91
3 | Cc1noc(C)c1Nc1ncc2c(n1)CN(C(=O)N[C@H](CO)c1ccc(F)c(Cl)c1)CC2 [II-34, 2-(3,5-Dimethyl-isoxazol-4-ylamino)-5,8-dihydro-6H-pyrido[3,4-d]pyrimidine-7-carboxylic acid [(S)-1-(3-chloro-4-fluoro-phenyl)-2-hydroxy-ethyl]-amide] | 7.59 | 4.88
4 | CNC[C@@H](NC(=O)N1CCc2cnc(Nc3ccc(F)cc3)nc2C1)c1ccc(F)c(Cl)c1 [II-35, 2-(4-Fluoro-phenylamino)-5,8-dihydro-6H-pyrido[3,4-d]pyrimidine-7-carboxylic acid [(S)-1-(3-chloro-4-fluoro-phenyl)-2-methylamino-ethyl]-amide] | 7.67 | 6.80
5 | CC(C)Nc1ncc2c(n1)CN(C(=O)N[C@@H](c1ccc(F)c(Cl)c1)[C@H](C)O)CC2 [II-40, 2-Isopropylamino-5,8-dihydro-6H-pyrido[3,4-d]pyrimidine-7-carboxylic acid [(1S,2S)-1-(3-chloro-4-fluoro-phenyl)-2-hydroxy-propyl]-amide] | 8.49 | 7.06
6 | COCCNC[C@@H](NC(=O)N1CCc2cnc(NC(C)C)nc2C1)c1ccc(F)c(Cl)c1 [II-41, 2-Isopropylamino-5,8-dihydro-6H-pyrido[3,4-d]pyrimidine-7-carboxylic acid [(S)-1-(3-chloro-4-fluoro-phenyl)-2-(2-methoxy-ethylamino)-ethyl]-amide] | 7.81 | 5.72
7 | CC(C)Nc1ncc2c(n1)CN(C(=O)N[C@H](CNS(C)(=O)=O)c1ccc(F)c(Cl)c1)CC2 [II-43, 2-Isopropylamino-5,8-dihydro-6H-pyrido[3,4-d]pyrimidine-7-carboxylic acid [(S)-1-(3-chloro-4-fluoro-phenyl)-2-methanesulfonylamino-ethyl]-amide] | 8.15 | 6.04
8 | CC(C)Nc1ncc2c(n1)CN(C(=O)N[C@H](CNc1ncccn1)c1ccc(F)c(Cl)c1)CC2 [II-50, 2-Isopropylamino-5,8-dihydro-6H-pyrido[3,4-d]pyrimidine-7-carboxylic acid [(S)-1-(3-chloro-4-fluoro-phenyl)-2-(pyrimidin-2-ylamino)-ethyl]-amide] | 8.35 | 6.00
9 | CC(C)Nc1ncc2c(n1)CN(C(=O)N[C@H](CNc1ccncn1)c1ccc(F)c(Cl)c1)CC2 [II-51, 2-Isopropylamino-5,8-dihydro-6H-pyrido[3,4-d]pyrimidine-7-carboxylic acid [(S)-1-(3-chloro-4-fluoro-phenyl)-2-(pyrimidin-4-ylamino)-ethyl]-amide] | 8.62 | 6.36
10 | O=C(N[C@H](CO)c1ccc(F)c(Cl)c1)N1CCc2cnc(Nc3ccc(Cl)c(F)c3)nc2C1 [II-61, 2-(4-Chloro-3-fluoro-phenylamino)-5,8-dihydro-6H-pyrido[3,4-d]pyrimidine-7-carboxylic acid [(S)-1-(3-chloro-4-fluoro-phenyl)-2-hydroxy-ethyl]-amide] | 6.68 | 4.67
11 | O=C(NC1(c2ccc(Cl)cc2)CCNC1)N1CCc2cnc(Nc3ccc(F)cc3)nc2C1 (stereo not shown) [II-64, 2-(4-Fluoro-phenylamino)-5,8-dihydro-6H-pyrido[3,4-d]pyrimidine-7-carboxylic acid [3-(4-chloro-phenyl)-pyrrolidin-3-yl]-amide] | 7.42 | 5.51
